This note sets out measurements from patent publication EP0204215B1, “2-[(1H-benzimidazol-2-ylsulfinyl)methyl]-benzenamines” (G.D. Searle & Co., priority 1985, dated 1986).

The target in one assay is T1, (H⁺+K⁺)-ATPase (Canis lupus familiaris, UniProt P50996).
T1 construct: The microsomes retained at the 15%-30% sucrose interface, after centrifugation at 250,000xg for sixty minutes, were used as the source of (H⁺+K⁺)-ATPase; from tissue; host or cells: gastric glandular mucosa of mongrel dogs (microsomal fraction, sucrose step gradient, lyophilized)
T1 sequence (P50996 whole entry): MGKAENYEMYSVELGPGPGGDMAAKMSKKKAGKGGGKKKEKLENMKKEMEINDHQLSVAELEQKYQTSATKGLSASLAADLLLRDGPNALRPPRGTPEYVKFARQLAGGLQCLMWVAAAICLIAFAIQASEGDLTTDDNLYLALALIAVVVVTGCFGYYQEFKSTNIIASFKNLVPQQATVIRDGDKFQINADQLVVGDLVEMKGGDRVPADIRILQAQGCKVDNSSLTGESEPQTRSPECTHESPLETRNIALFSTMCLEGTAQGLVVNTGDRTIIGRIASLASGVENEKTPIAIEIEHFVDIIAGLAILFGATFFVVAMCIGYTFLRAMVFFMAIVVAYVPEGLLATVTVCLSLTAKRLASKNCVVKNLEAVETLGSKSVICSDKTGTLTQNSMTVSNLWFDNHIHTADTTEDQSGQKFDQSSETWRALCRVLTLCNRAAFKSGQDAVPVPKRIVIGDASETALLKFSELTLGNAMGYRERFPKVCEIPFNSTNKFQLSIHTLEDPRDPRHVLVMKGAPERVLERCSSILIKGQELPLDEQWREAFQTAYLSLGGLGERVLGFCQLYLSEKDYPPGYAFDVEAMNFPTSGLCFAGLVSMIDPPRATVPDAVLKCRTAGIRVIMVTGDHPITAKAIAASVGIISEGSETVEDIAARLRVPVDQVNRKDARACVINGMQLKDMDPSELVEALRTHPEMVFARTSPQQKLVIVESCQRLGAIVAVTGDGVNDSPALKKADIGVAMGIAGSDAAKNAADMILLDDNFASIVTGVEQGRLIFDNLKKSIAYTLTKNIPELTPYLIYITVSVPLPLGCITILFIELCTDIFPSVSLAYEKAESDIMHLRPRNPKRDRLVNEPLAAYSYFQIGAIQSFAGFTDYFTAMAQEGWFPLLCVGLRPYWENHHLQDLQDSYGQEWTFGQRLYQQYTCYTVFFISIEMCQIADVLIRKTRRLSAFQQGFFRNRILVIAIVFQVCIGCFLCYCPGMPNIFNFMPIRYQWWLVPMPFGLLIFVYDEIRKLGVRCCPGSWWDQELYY
T1 sequence (P33704 whole entry partner): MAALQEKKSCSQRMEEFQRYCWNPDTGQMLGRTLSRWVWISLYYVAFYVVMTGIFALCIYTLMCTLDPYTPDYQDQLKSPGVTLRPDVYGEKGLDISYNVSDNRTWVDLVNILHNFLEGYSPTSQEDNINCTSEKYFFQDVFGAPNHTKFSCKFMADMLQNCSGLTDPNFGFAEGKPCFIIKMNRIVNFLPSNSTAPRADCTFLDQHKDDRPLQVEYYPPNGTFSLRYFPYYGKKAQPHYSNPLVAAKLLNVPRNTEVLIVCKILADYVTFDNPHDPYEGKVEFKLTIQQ
The experiment in a line: Inhibition of (H⁺+K⁺)-ATPase from canine gastric mucosa (release of inorganic phosphate). The settings on record: microsomes from canine gastric mucosa, pH 6.0, preincubated 30 min at 37°; read-out: (H⁺+K⁺)-ATPase IC₅₀. The class given is biochemical. How it is done: Mongrel dogs weighing 15 to 25 kilograms were fasted for twenty-four hours, with water provided ad libitum. The animals were anesthetized with pentobarbital and the stomachs were removed. Subsequent tissue manipulations and subcellular fractionations were performed at 0 to 4°C. After the stomachs were cut open and rinsed with tap water, the antral and cardiac regions were removed and the remaining tissue was rinsed three times in saline. The glandular mucosa was removed mechanically, chopped finely in a medium containing 10 mM Tris hydrochloride (pH 7.4) and 250 mM sucrose, and homogenized. The homogenate was centrifuged at 20,000xg for twenty minutes and the pellet discarded. The supernatant was then centrifuged at 150,000xg for ninety minutes and the supernatant discarded. The pellet was resuspended in the Tris-HCl/sucrose medium by homogenization. Part (2 ml) of the resultant microsomal suspension was layered onto a step gradient consisting of 9 ml of 15% sucrose above 12 ml of 30% sucrose, each sucrose solution being buffered with 10 mM Tris hydrochloride (pH 7.4) containing 0.01% sodium aside. The microsomes retained at the 15%-30% sucrose interface, after centrifugation at 250,000xg for sixty minutes, were used as the source of (H⁺+K⁺)-ATPase. Microsomal preparations were lyophilized, a process that assured potassium ion permiability, and stored at -10° until used.
(H⁺+K⁺)-ATPase activity for each test compound was determined, in duplicate, by measuring the release of inorganic phosphate, which was assayed according to the method of J. ChandraRajan and L. Klein. Anal. Biochem., 72, 407-412 (1976). The (H⁺+K⁺)-ATPase assay medium consisted of 20 mM Mes-Tris (pH 6.0), 5 mM magnesium chloride, 25 mM sucrose, and 4mM Tris-ATP with or without 20 mM potassium chloride in a total volume of 2 ml. Microsomal suspensions (20 to 60 mcl, containing about 25 mcg protein) were added to the assay medium, without Tris-ATP, and then preincubated with a test compound for thirty minutes at 37°. The assay was initiated by adding Tris-ATP and the mixture was incubated another thirty minutes at 37°. A 200-mcl aliquot of the assay mixture was then added to 1.4 ml of a solution consisting of 0.1 M sodium acetate (pH 4.0) and 10% sodium dodecylsulfate, followed by the addition of 200 mcl each of 1% ammonium molybdate and 1% ascorbic acid. At least fifteen minutes later, the optical absorbance at 870 nm (which was proportional to inorganic phosphate concentration up to 100 nmoles per tube, as determined by a standard curve) was obtained. Enzyme activity was linear with incubation time.
(H⁺+K⁺)-ATPase activity is represented by the difference between the measured activities in the presence of potassium ion (K⁺-stimulated) and in the absence of potassium ion (basal). The concentration of a test compound required to inhibit 50% of the (H⁺+K⁺)-ATPase activity (i.e., the IC₅₀) was determined at least in duplicate using linear regression analysis of results obtained for three different compound concentrations ranging from 0.1 mcM to 0.2 mM.

Assay [1] concerns Gastric Acid Secretion. The experiment in a line: Inhibition of gastric acid secretion in gastric fistula beagle dogs (histamine-stimulated). The class given is in vivo. The following applies: four-hour histamine stimulation; for Gastric-Fistula Beagle % Inhibition: 3 mg/kg dose; for inhibition in vivo at 3 mg/kg: Canis lupus familiaris, 4 h. An excerpt: Adult female beagle dogs weighing 6 to 11 kilograms obtained from Laboratory Research Enterprises (Kalamazoo, Mich.) or from Hazelton Research Animals (Cumberland, Va.) were surgically implanted with a simple Thomas-type gastric cannula. After recovery from surgery, the dogs were trained to stand quietly, fully conscious, in Pavlov-type dog restraining slings and were acclimated to intravenous infusion of histamine dihydrochloride. During the course of these studies, no dog was used more than once a week. All dogs were deprived of food, but not water, for 18 hours prior to each assay. Each dog was initially infused with 0.15 M sodium chloride solution at a constant rate of […]. The volume of gastric secretions, collected in plastic bottles affixed to the cannula, were measured to the nearest 0.1 ml at 30 minute intervals. One of the following protocols was followed, depending on the route chosen for administration of test compound.
Intravenous dosing: Following a 30-minute basal secretion period, test compounds were administered intravenously (i.v.). At the end of an additional 30 minute period, the saline infusion was replaced with histamine dihydrochloride in saline administered at a rate 15 mcg per kilogram of body weight per hour. Histamine stimulation was maintained for a maximum of four hours during which time gastric secretions were collected every 30 minutes. The pH and titratable acidity were determined for samples from each collection period.
Intragastric dosing: Following a 30-minute basal secretion period, the collection bottles were removed, dosing plugs were inserted, and test compounds were administered intragastrically (i.g.). At the end of a 30-minute drug absorption period, the stomachs were emptied, the collection bottles were reattached, and collections were resumed at 30-minute intervals. Simultaneously, the saline infusion was replaced with a continuous intravenous infusion of histamine dihydrochloride in saline administered for four hours at a rate 15 mcg per kilogram of body weight per hour.
Intraduodenal dosing: Dogs were also equipped with duodenal cannulas for intraduodenal (i.d.) administration of test compounds. Dosing was otherwise performed as described for intragastric dosing.
Data from each protocol were analyzed for three gastric sample variables: volume of gastric juice, acid concentration, and total acid output. Percent inhibition for each four-hour experimental period was determined for each parameter by comparison with 3 to 4 controls in which only food was given. Estimates of ED₅₀'s were determined from dose response curves.

The test system of assay [2] is Gastric Acid Secretion. The experiment in a line: Inhibition of gastric acid secretion in meal-stimulated Pavlov pouch dog. The class given is in vivo, beagle dogs. The following applies: four-hour period. How it is done:
Adult female beagle dogs weighing 6 to 10 kilograms were obtained from Laboratory Research Enterprises (Kalamazoo, Mich.) or from Hazelton Research Animals (Cumberland, Va.). Surgical implantation of a Thomas-type gastric cannula into an innervated Pavlov pouch of each dog was performed by the method reported by L. Burrows et al., J. Surgical Res., 4, 147-150 (1964). After recovery from surgery, the dogs were trained to stand quietly, fully conscious, in Pavlov-type dog restraining slings. All dogs were deprived of food, but not water, for 24 hours prior to each assay. Basal acid secretion was measured by collecting from the cannulas for 30 minutes before dosing with a test compound. Solutions of the test compounds in iso-osmotic phosphate buffer (pH 7.4) were given either intravenously or directly into the Pavlov pouch. After 30 minutes the pouch was drained. The dogs were then fed 320 grams of dog food and gastric acid secretions were collected each half hour for four hours. Controls were determined in the same way except that only food (i.e., no test compound) was administered.
Data were analyzed for three different variables: volume of gastric juice, acid concentration, and total acid output. Percent inhibition for the four-hour experimental period was determined for each parameter by comparison with 3 to 4 controls. Estimates of ED₅₀ were determined from dose response curves.

pIC50: −log10 of the molar value.

For “2-[[[(5-(trifluoromethy)1-1H-benzimidazol-2-yl]thio]methyl]-3,6-dimethylbenzenamine [Example 28]”, the pIC50 at (H⁺+K⁺)-ATPase was 5.28.

Consider “2-[[[(5-(trifluoromethyl)-1H-benzimidazol-2-yl]thio]methyl]benzenamine [Example 20]”, for which the “Gastric-Fistula Beagle % Inhibition” value is 72 i.d. % in the assay on Gastric Acid Secretion [1] (i.d.) and 96 i.v. % with Gastric Acid Secretion [1] (i.v.). Also, on (H⁺+K⁺)-ATPase, the pIC50 was 5.27.

Turning to `Nc1ccccc1C[S+]([O-])c1nc2ccccc2[nH]1` (stereo not drawn) [Example 3, 2-[(1H-benzimidazol-2-ylsulfinyl)methyl] benzenamine hemihydrate], in the assay on Gastric Acid Secretion [1] (i.d.), the “Gastric-Fistula Beagle % Inhibition” value was 53 i.d. %. The “Pavlov-Pouch Dog % Inhibition” value is reported as 20 (1 mg/kg) % in the assay on Gastric Acid Secretion [2] (1 mg/kg) and 87 (10 mg/kg) % with Gastric Acid Secretion [2] (10 mg/kg).

On to `COc1ccc2[nH]c([S+]([O-])Cc3ccccc3N)nc2c1` (stereo not drawn) [Example 5, 2-[[(5-methoxy-1H-benzimidazol-2-yl)sulfinyl]methyl]benzenamine], for which the figures for the “Pavlov-Pouch Dog % Inhibition” value in the assay on Gastric Acid Secretion [2] (3 mg/kg) and with Gastric Acid Secretion [2] (10 mg/kg) were 19 (3 mg/kg) % and 54 (10 mg/kg) %, respectively.

As to `Cc1ccc(N)c(C[S+]([O-])c2nc3ccccc3[nH]2)c1` (stereo not drawn) [Example 11, 2-[(1H-benzimidazol-2-ylsulfinyl)methyl]-4-methylbenzenamine], the “Gastric-Fistula Beagle % Inhibition” value in the assay with Gastric Acid Secretion [1] (i.v.) is recorded as 67 i.v. %.

For the compound `Cc1cccc(C[S+]([O-])c2nc3ccccc3[nH]2)c1N` (stereo not drawn) [Example 13, 2-[(1H-benzimidazol-2-ylsulfinyl)methyl]-6-methylbenzenamine], the “Gastric-Fistula Beagle % Inhibition” value in the assay with Gastric Acid Secretion [1] (i.d.) was determined as 44 i.d. %. In the assay on Gastric Acid Secretion [2] (3 mg/kg), the “Pavlov-Pouch Dog % Inhibition” value is listed as 43 (3 mg/kg) %.

As to `COc1ccc2[nH]c(SCc3cc(C)ccc3N)nc2c1` [Example 16, 2-[[(5-methoxy-1H-benzimidazol-2-yl)thio]methyl]-4-methylbenzenamine], the pIC50 at (H⁺+K⁺)-ATPase was 6.07.

With `COc1ccc2[nH]c(SCc3cccc(C)c3N)nc2c1` [Example 18, 2-[[(5-methoxy-1H-benzimidazol-2-yl)thio]methyl]-6-methylbenzenamine], the inhibition in vivo at 3 mg/kg with Gastric Acid Secretion [1] (intraduodenal, i.d.) is 66%; in the assay with Gastric Acid Secretion [1] (iv), 91%; in the assay with Gastric Acid Secretion [1] (po, i.g.) it was 43%. Further, on (H⁺+K⁺)-ATPase, the pIC50 was 5.38. In addition, in the assay on Gastric Acid Secretion [2] (3 mg/kg), the “Pavlov-Pouch Dog % Inhibition” value is 79 (3mg/kg) %.

`Cc1ccc(CSc2nc3ccccc3[nH]2)c(N)c1C` [Example 22, 2-[(1H-benzimidazol-2-ylthio)methyl]-5,6-dimethylbenzenamine] gave an inhibition in vivo at 3 mg/kg with Gastric Acid Secretion [1] (intraduodenal, i.d.) of 37%. The pIC50 at (H⁺+K⁺)-ATPase is 5.36.

Turning to `CCOc1ccc2[nH]c(SCc3cc(C)ccc3N)nc2c1` [Example 26, 2-[[(5-ethoxy-1H-benzimidazol-2-yl)thio]-methyl]-4-methylbenzenamine], on (H⁺+K⁺)-ATPase, the pIC50 was 6.09.

For the compound `Cc1cc(N)c(C[S+]([O-])c2nc3ccccc3[nH]2)c(C)c1C` (stereo not drawn) [Example 30, 2-[(1H-benzimidazol-2-ylsulfinyl)methyl]-3,4,5-trimethylbenzenamine hemihydrate], on (H⁺+K⁺)-ATPase, the pIC50 is 5.82.

For the compound `COc1ccc2[nH]c([S+]([O-])Cc3c(N)cc(C)c(OC)c3C)nc2c1` (stereo not drawn) [Example 31, 2-[[(5-methoxy-1H-benzimidazol-2-yl)sulfinyl]methyl]-4-methoxy-3,5-dimethylbenzenamine], the “Gastric-Fistula Beagle % Inhibition” value in the assay with Gastric Acid Secretion [1] (i.d.) is 31 i.d. %. Also, the pIC50 on (H⁺+K⁺)-ATPase is 4.80.
